Measurements as given in paper PMC10855388, “Small-Molecule-Directed Endogenous Regeneration of Visual Function in a Mammalian Retinal Degeneration Model” (International Journal of Molecular Sciences, 2024).

What was measured:
Test in all cases: KinaseProfiler in vitro kinase panel ([…] human kinases), single concentration […]
Format in all cases: biochemical
[1] = biological target: T1, ROCK-I (Homo sapiens, UniProt Q13464)
T1 construct: gene ROCK1

[2] = biological target: T2, p70S6K (Homo sapiens, UniProt P23443)
T2 construct: gene RPS6KB1

[3] = biological target: T3, PKG1α (Homo sapiens, UniProt Q13976)
T3 construct: gene PRKG1
T3 sequence (Q13976 2-671): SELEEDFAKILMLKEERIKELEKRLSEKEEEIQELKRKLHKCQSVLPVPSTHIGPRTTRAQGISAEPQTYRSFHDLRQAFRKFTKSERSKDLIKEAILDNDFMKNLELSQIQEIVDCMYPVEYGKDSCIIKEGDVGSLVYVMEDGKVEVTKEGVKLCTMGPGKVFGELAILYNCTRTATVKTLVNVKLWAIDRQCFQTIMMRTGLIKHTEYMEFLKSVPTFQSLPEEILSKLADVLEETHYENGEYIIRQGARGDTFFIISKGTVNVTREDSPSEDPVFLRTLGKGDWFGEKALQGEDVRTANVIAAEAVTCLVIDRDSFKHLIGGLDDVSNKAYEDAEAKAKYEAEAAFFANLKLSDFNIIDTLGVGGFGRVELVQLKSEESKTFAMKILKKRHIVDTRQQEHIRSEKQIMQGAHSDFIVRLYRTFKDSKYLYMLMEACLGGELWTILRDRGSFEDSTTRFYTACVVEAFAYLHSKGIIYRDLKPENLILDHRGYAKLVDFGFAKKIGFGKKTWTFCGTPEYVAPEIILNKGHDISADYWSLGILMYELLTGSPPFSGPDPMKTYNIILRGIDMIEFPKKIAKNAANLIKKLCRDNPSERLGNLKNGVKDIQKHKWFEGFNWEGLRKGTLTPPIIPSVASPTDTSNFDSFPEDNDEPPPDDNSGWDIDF

[4] = biological target: T4, PKA (Homo sapiens, UniProt P17612)
T4 construct: gene PRKACA

Measured: inhibition at 5 µM

T1 sequence (Q13464 2-1354): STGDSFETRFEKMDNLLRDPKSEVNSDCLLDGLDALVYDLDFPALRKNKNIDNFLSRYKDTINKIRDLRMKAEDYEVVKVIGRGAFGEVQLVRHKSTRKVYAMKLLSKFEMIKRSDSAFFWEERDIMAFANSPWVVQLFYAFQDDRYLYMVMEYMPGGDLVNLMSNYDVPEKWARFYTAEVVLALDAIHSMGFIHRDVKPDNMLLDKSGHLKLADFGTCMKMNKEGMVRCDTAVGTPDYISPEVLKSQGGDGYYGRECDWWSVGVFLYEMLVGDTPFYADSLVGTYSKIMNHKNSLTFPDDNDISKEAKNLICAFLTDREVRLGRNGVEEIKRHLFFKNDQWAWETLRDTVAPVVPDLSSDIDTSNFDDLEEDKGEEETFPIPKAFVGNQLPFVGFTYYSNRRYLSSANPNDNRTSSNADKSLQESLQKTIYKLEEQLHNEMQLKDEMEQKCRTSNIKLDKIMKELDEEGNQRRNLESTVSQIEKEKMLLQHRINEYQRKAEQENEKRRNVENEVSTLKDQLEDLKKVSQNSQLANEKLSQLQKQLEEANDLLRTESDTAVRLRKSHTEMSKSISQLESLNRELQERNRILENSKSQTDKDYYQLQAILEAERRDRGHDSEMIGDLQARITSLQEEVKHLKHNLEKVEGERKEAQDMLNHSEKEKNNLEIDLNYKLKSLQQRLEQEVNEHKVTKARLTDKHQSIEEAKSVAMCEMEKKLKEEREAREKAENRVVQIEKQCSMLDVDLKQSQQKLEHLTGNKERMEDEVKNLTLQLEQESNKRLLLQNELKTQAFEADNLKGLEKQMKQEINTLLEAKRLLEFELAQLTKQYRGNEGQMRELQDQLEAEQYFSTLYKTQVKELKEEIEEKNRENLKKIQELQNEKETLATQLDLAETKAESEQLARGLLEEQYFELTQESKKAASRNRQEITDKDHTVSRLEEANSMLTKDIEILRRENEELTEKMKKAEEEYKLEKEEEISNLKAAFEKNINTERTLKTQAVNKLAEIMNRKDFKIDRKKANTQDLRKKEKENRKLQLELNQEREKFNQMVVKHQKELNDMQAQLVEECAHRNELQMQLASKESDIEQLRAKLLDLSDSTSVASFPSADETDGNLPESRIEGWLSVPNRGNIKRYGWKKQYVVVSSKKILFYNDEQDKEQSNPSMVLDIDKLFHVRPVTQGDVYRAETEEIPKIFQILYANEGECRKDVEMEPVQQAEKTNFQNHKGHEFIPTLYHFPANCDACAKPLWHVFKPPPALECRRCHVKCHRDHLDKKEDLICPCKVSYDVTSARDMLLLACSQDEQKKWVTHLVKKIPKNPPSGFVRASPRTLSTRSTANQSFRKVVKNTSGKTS
T2 sequence (P23443 whole entry): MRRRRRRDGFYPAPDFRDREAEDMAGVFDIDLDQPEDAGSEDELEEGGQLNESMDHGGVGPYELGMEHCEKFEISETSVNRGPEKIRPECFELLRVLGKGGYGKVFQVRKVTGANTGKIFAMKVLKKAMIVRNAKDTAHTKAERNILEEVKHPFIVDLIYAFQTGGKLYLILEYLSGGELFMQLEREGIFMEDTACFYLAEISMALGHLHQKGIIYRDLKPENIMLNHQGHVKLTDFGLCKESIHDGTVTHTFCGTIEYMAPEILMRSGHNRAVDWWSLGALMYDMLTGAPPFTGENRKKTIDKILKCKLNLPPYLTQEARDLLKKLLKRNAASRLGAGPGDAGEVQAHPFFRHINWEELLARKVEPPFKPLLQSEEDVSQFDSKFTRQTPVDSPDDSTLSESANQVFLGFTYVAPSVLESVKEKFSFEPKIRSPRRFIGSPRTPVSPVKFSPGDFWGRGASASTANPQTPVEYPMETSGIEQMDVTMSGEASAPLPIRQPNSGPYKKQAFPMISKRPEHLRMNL

COc1cc(NC(=O)C2COc3ccccc3C2)ccc1-c1cnco1 (stereo not shown) [CompA, CompoundA]
> 75%: all assays above
